Measured values as given in US10835533B2, “1 -((3S,4R)-4-(3-fluorophenyl)-1-(2-methoxyethyl)pyrrolidin-3-yl)-3-(4-methyl-3-(2-methylpyrimidin-5-yl)-1-phenyl-1H-pyrazol-5-yl)urea as a TrkA kinase inhibitor” (Array BioPharma Inc., priority 2014, dated 2020).

Key:
Experiment in all cases: KinaseProfiler kinase profiling
Format in all cases: biochemical
Conditions in all cases: 10 μM, ATP near Km
NLK = molecular target: T1, NLK (Homo sapiens, UniProt Q9UBE8)
T1 construct: purchased Millipore, Inc. (KinaseProfiler service)
Method: (§1) Compound 1 was tested for off-target kinase activity at a concentration of 10 μM by Millipore, Inc. in their KinaseProfiler™ service against all the kinases available in their full kinase panel. Compound 1 was run in duplicate at a concentration of ATP near the Km for each individual kinase according to Millipore's specifications. Data are reported as percent of control (POC) and are the average of the two replicates.

ERK2 = molecular target: T2, ERK2 (Homo sapiens, UniProt P28482)
T2 construct: purchased Millipore, Inc. (KinaseProfiler service)
Method: as §1

AMPK(A1/B1/G1) = molecular target: T3, AMPK(A1/B1/G1) (Homo sapiens, UniProt Q13131)
T3 construct: purchased Millipore, Inc. (KinaseProfiler service)
Method: as §1

mTOR/FKBP12 = molecular target: T4, mTOR/FKBP12 (Homo sapiens, UniProt P42345)
T4 construct: purchased Millipore, Inc. (KinaseProfiler service)
T4 sequence (P42345 1362-2549 limits assumed): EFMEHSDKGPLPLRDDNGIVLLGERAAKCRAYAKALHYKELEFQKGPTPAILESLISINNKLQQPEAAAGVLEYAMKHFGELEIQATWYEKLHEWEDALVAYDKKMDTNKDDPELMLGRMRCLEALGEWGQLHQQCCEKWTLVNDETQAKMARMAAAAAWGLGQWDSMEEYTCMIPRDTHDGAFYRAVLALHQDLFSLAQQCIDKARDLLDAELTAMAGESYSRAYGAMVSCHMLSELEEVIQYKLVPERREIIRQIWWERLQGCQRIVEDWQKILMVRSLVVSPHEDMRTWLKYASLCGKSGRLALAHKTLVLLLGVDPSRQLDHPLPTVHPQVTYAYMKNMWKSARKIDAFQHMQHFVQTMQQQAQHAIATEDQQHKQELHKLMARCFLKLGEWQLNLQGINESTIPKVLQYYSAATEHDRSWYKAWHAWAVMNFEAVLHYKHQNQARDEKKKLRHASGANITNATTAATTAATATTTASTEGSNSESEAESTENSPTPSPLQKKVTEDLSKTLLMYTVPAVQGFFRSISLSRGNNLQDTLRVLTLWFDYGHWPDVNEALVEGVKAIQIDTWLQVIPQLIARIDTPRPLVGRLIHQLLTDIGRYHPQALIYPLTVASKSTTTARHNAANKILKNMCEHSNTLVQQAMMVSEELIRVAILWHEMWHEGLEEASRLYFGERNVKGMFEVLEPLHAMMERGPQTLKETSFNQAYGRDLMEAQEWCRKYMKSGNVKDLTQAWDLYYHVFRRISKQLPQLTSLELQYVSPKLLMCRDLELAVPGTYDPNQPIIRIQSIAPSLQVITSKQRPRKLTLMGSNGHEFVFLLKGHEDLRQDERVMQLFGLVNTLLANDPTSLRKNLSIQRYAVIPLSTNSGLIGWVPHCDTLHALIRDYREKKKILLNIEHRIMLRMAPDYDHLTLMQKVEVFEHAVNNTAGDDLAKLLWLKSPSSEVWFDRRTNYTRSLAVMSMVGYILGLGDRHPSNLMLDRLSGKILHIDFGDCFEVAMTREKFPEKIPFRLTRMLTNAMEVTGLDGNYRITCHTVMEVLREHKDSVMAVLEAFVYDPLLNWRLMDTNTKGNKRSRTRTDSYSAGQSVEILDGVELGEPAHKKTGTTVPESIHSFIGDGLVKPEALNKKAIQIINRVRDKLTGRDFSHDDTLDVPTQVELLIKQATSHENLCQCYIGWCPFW
Method: as §1

PKCzeta = molecular target: T5, PKCzeta (Homo sapiens, UniProt Q05513)
T5 construct: purchased Millipore, Inc. (KinaseProfiler service)
T5 sequence (Q05513 whole entry): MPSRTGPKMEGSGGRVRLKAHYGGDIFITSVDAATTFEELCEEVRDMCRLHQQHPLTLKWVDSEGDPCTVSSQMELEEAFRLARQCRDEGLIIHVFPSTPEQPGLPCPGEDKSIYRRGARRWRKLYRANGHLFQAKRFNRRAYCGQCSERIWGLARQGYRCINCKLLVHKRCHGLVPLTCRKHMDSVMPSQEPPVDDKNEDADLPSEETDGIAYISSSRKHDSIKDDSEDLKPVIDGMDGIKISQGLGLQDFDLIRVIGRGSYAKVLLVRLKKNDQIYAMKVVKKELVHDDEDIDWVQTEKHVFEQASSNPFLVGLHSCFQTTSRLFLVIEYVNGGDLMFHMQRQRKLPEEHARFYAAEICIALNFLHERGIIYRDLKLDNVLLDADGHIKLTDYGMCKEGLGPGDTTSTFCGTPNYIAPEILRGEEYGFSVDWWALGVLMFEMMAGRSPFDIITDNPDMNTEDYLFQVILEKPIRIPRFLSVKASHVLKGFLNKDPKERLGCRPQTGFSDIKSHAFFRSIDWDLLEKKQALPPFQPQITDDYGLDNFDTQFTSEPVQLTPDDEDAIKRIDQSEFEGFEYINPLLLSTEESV
Method: as §1

TEC Activated = molecular target: T6, TEC Activated (Homo sapiens, UniProt P42680)
T6 construct: purchased Millipore, Inc. (KinaseProfiler service)
Method: as §1

IRAK4 = molecular target: T7, IRAK4 (Homo sapiens, UniProt Q9NWZ3)
T7 construct: purchased Millipore, Inc. (KinaseProfiler service)
Method: as §1

CAMK2b = molecular target: T8, CAMK2b (Homo sapiens, UniProt Q13554)
T8 construct: purchased Millipore, Inc. (KinaseProfiler service)
T8 sequence (Q13554 whole entry): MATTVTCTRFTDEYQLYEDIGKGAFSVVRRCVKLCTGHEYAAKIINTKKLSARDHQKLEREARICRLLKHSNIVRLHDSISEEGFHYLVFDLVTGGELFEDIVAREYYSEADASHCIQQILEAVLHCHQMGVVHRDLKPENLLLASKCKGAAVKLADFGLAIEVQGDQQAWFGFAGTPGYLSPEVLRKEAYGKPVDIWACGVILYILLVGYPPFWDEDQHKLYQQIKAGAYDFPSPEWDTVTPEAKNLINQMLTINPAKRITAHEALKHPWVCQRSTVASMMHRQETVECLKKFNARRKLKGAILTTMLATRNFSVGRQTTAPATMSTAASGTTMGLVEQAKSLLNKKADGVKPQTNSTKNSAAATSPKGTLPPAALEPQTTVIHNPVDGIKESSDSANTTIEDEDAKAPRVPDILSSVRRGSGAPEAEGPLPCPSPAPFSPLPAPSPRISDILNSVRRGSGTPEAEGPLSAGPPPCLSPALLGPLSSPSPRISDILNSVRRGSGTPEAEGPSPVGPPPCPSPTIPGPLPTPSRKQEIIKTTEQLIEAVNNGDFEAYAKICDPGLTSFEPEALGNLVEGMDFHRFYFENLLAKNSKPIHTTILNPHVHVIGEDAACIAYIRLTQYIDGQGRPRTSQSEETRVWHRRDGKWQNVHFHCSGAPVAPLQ
Method: as §1

Rsk2 = molecular target: T9, Rsk2 (Homo sapiens, UniProt P51812)
T9 construct: purchased Millipore, Inc. (KinaseProfiler service)
T9 sequence (P51812 whole entry): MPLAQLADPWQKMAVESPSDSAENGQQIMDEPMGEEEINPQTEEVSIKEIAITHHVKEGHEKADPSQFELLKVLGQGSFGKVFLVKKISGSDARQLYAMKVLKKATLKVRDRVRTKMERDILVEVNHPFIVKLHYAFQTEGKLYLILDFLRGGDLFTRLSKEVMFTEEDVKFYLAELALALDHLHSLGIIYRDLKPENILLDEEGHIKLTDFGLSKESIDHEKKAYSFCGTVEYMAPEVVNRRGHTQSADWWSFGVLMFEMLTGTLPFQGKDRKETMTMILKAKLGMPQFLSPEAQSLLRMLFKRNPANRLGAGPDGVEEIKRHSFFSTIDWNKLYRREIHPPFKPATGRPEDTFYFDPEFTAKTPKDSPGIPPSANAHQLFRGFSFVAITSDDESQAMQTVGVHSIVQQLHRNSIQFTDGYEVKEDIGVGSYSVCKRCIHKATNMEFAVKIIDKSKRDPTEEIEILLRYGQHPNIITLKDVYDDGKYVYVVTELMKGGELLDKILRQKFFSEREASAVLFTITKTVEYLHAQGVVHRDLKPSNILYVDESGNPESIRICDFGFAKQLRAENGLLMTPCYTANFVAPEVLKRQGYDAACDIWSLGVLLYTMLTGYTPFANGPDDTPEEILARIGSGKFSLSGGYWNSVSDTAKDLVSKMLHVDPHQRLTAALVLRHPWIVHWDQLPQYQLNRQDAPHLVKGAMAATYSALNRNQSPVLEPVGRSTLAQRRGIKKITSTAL
Method: as §1

ROCK-I = molecular target: T10, ROCK-I (Homo sapiens, UniProt Q13464)
T10 construct: purchased Millipore, Inc. (KinaseProfiler service)
Method: as §1

NEK11 = molecular target: T11, NEK11 (Homo sapiens, UniProt Q8NG66)
T11 construct: purchased Millipore, Inc. (KinaseProfiler service)
Method: as §1

Hck = molecular target: T12, Hck (Homo sapiens, UniProt P08631)
T12 construct: purchased Millipore, Inc. (KinaseProfiler service)
Method: as §1

Lck = molecular target: T13, Lck (Homo sapiens, UniProt P06239)
T13 construct: purchased Millipore, Inc. (KinaseProfiler service)
Method: as §1

Src = molecular target: T14, Src (Homo sapiens, UniProt P12931)
T14 construct: purchased Millipore, Inc. (KinaseProfiler service)
T14 sequence (P12931 whole entry): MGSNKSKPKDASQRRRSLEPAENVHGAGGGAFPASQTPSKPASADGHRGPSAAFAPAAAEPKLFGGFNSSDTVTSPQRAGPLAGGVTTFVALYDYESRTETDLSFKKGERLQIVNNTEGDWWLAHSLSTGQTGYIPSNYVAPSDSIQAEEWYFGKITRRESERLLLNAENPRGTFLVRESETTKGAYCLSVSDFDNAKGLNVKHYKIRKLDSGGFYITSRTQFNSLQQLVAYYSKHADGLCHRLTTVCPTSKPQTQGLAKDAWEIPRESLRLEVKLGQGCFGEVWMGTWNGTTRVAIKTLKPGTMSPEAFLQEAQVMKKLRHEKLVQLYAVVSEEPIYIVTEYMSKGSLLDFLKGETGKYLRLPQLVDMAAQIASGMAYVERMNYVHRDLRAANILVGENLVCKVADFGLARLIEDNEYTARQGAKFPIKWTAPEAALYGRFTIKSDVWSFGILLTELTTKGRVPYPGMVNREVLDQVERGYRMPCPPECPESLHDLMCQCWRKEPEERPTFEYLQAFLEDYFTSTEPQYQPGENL
Method: as §1

PhKgamma2 = molecular target: T15, PhKgamma2 (Homo sapiens, UniProt P15735)
T15 construct: purchased Millipore, Inc. (KinaseProfiler service)
Method: as §1

MEK1 = molecular target: T16, MEK1 (Homo sapiens, UniProt Q02750)
T16 construct: purchased Millipore, Inc. (KinaseProfiler service)
Method: as §1

PKD1 = molecular target: T17, PKD1 (Homo sapiens, UniProt Q15139)
T17 construct: purchased Millipore, Inc. (KinaseProfiler service)
Method: as §1

Flt1 = molecular target: T18, Flt1 (Homo sapiens, UniProt P17948)
T18 construct: purchased Millipore, Inc. (KinaseProfiler service)
Method: as §1

CDK3/cyclinE = molecular target: T19, CDK3/cyclinE (Homo sapiens, UniProt Q00526)
T19 construct: purchased Millipore, Inc. (KinaseProfiler service)
Method: as §1

PTK6 = molecular target: T20, PTK6 (Homo sapiens, UniProt Q13882)
T20 construct: purchased Millipore, Inc. (KinaseProfiler service)
Method: as §1

CDK5/p35 = molecular target: T21, CDK5/p35 (Homo sapiens, UniProt Q00535)
T21 construct: purchased Millipore, Inc. (KinaseProfiler service)
Method: as §1

MLK1 = molecular target: T22, MLK1 (Homo sapiens, UniProt P80192)
T22 construct: purchased Millipore, Inc. (KinaseProfiler service)
Method: as §1

PKCdelta = molecular target: T23, PKCdelta (Homo sapiens, UniProt Q05655)
T23 construct: purchased Millipore, Inc. (KinaseProfiler service)
Method: as §1

MSSK1 = molecular target: T24, MSSK1 (Homo sapiens, UniProt Q9UPE1)
T24 construct: purchased Millipore, Inc. (KinaseProfiler service)
Method: as §1

CK1_y = system: CK1_y
Method: as §1

EphA3 = molecular target: T25, EphA3 (Homo sapiens, UniProt P29320)
T25 construct: purchased Millipore, Inc. (KinaseProfiler service)
Method: as §1

PDGFRalpha = molecular target: T26, PDGFRalpha (Homo sapiens, UniProt P16234)
T26 construct: purchased Millipore, Inc. (KinaseProfiler service)
Method: as §1

TAO1 = molecular target: T27, TAO1 (Homo sapiens, UniProt Q7L7X3)
T27 construct: purchased Millipore, Inc. (KinaseProfiler service)
Method: as §1

Plk1 = molecular target: T28, Plk1 (Homo sapiens, UniProt P53350)
T28 construct: purchased Millipore, Inc. (KinaseProfiler service)
T28 sequence (P53350 whole entry): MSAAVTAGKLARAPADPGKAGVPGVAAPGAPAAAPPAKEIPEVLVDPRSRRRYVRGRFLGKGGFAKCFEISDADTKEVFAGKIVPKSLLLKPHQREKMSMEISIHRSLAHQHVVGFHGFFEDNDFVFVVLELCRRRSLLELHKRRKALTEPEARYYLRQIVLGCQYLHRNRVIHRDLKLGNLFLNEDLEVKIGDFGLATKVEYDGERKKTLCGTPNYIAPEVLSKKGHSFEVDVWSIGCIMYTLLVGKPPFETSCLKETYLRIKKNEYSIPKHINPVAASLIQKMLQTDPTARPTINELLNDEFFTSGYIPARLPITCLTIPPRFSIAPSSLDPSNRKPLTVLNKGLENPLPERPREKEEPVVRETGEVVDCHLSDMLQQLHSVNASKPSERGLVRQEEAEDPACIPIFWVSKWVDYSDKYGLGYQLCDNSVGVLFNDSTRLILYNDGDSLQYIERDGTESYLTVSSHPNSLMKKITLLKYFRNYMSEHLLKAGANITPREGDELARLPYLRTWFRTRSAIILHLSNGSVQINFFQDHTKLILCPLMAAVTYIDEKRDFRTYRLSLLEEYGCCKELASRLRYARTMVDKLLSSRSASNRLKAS
Method: as §1

eEF-2K = molecular target: T29, eEF-2K (Homo sapiens, UniProt O00418)
T29 construct: purchased Millipore, Inc. (KinaseProfiler service)
Method: as §1

FGFR4 = molecular target: T30, FGFR4 (Homo sapiens, UniProt P22455)
T30 construct: purchased Millipore, Inc. (KinaseProfiler service)
Method: as §1

AKT3 = molecular target: T31, AKT3 (Homo sapiens, UniProt Q9Y243)
T31 construct: purchased Millipore, Inc. (KinaseProfiler service)
T31 sequence (Q9Y243 whole entry): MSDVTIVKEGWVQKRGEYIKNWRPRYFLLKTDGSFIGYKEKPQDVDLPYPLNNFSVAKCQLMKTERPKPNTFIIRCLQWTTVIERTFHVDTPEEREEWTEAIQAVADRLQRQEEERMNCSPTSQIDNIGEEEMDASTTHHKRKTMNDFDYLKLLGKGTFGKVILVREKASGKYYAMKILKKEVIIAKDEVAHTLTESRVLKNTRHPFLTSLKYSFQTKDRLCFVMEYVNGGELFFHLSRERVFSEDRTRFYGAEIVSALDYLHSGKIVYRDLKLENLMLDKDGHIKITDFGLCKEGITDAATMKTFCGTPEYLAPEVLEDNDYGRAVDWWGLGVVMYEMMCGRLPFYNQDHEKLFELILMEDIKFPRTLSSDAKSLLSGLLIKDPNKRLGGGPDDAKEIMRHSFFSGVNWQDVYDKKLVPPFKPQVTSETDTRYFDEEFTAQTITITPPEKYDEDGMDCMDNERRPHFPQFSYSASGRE
Method: as §1

FGFR1 = molecular target: T32, FGFR1 (Homo sapiens, UniProt P11362)
T32 construct: purchased Millipore, Inc. (KinaseProfiler service)
Method: as §1

Fgr = molecular target: T33, Fgr (Homo sapiens, UniProt P09769)
T33 construct: purchased Millipore, Inc. (KinaseProfiler service)
Method: as §1

VRK2 = molecular target: T34, VRK2 (Homo sapiens, UniProt Q86Y07)
T34 construct: purchased Millipore, Inc. (KinaseProfiler service)
Method: as §1

MAPKAP-K3 = molecular target: T35, MAPKAP-K3 (Homo sapiens, UniProt Q16644)
T35 construct: purchased Millipore, Inc. (KinaseProfiler service)
Method: as §1

Syk = molecular target: T36, Syk (Homo sapiens, UniProt P43405)
T36 construct: purchased Millipore, Inc. (KinaseProfiler service)
Method: as §1

CK1delta = molecular target: T37, CK1delta (Homo sapiens, UniProt P48730)
T37 construct: purchased Millipore, Inc. (KinaseProfiler service)
Method: as §1

p70S6K = molecular target: T38, p70S6K (Homo sapiens, UniProt P23443)
T38 construct: purchased Millipore, Inc. (KinaseProfiler service)
Method: as §1

JAK3 = molecular target: T39, JAK3 (Homo sapiens, UniProt P52333)
T39 construct: purchased Millipore, Inc. (KinaseProfiler service)
Method: as §1

PDGFRbeta = molecular target: T40, PDGFRbeta (Homo sapiens, UniProt P09619)
T40 construct: purchased Millipore, Inc. (KinaseProfiler service)
Method: as §1

Avg POC (NLK): 94.5 POC | Avg POC (ERK2): 100 POC | Avg POC (AMPK(A1/B1/G1)): 102.5 POC | Avg POC (mTOR/FKBP12): 105.5 POC | Avg POC (PKCzeta): 97.5 POC | Avg POC (TEC Activated): 97 POC | Avg POC (IRAK4): 98 POC | Avg POC (CAMK2b): 147.5 POC | Avg POC (Rsk2): 93 POC | Avg POC (ROCK-I): 98.5 POC | Avg POC (NEK11): 94 POC | Avg POC (Hck): 108.5 POC | Avg POC (Lck): 94 POC | Avg POC (Src): 120 POC | Avg POC (PhKgamma2): 108 POC | Avg POC (MEK1): 103.5 POC | Avg POC (PKD1): 94.5 POC | Avg POC (Flt1): 97 POC | Avg POC (CDK3/cyclinE): 94.5 POC | Avg POC (PTK6): 106 POC | Avg POC (CDK5/p35): 97 POC | Avg POC (MLK1): 109.5 POC | Avg POC (PKCdelta): 102 POC | Avg POC (MSSK1): 127.5 POC | Avg POC (CK1_y): 91.5 POC | Avg POC (EphA3): 95.5 POC | Avg POC (PDGFRalpha): 96 POC | Avg POC (TAO1): 96 POC | Avg POC (Plk1): 99.5 POC | Avg POC (eEF-2K): 112.5 POC | Avg POC (FGFR4): 105 POC | Avg POC (AKT3): 113.5 POC | Avg POC (FGFR1): 117 POC | Avg POC (Fgr): 106 POC | Avg POC (VRK2): 96 POC | Avg POC (MAPKAP-K3): 99 POC | Avg POC (Syk): 95.5 POC | Avg POC (CK1delta): 104 POC | Avg POC (p70S6K): 104 POC | Avg POC (JAK3): 95.5 POC | Avg POC (PDGFRbeta): 96 POC
Structure (SMILES): COCCN1C[C@@H](NC(=O)Nc2c(C)c(-c3cnc(C)nc3)nn2-c2ccccc2)[C@H](c2cccc(F)c2)C1 [Compound 1, 1-((3S,4R)-4-(3-fluorophenyl)-1-(2-methoxyethyl)pyrrolidin-3-yl)-3-(4-methyl-3-(2-methylpyrimidin-5-yl)-1-phenyl-1H-pyrazol-5-yl)urea]
